Test results reported in patent US20010041743A1, “Use of cyclopentenone derivatives for bone and periodontal regeneration” (priority 2000, published 2001).
Entries after “also recorded” stand apart in the source; their conditions may differ.

What was measured:
[1] = system: titanium implants placed in the rat femur; assay: Titanium implant model of bone regeneration (bone height and width around implant); assay type: in vivo; conditions: for bone growth (height and width) around implant: versus control vehicle
Protocol: In a second study, titanium implants were placed in the rat femurto mimic human dental implant placement, as described in Example 2. Bone healing and regeneration around the implants was assessed following treatment with implants loaded with Δ^12PGJ2.
Six male Wistar rats were anesthetized as described in Example 1 for the placement of 4 titanium implants in each animal. Implants were fabricated from surgical grade titanium 1.5 mm in diameter, 2.5 mm in length with machined threads, cleaned bysonication and autoclaved prior to use. Implant sites were prepared with cooling using a dental high speed hand piece. One test and one control implant site were prepared for placement of 5 μl of test or control solution, followed by implant placement. Control implants comprised vehicle only (10% carboxymethylcellulose in normal saline). For test sites, 10^−3M or 10^−5M Δ^12PGJ2 was applied to the site following placement of the implant. Animals were monitored for 3 or 8 weeks following implantation.
Femur bones were collected and fixed in 4% paraformaldehyde, 0.1 M phosphate buffer. Samples were cleared through sequential washings of graded alcohol followed by xylene. Bones were embedded in methacrylate and sectioned with a low speed diamond saw and stained with Toluidine Blue. Two different quantitative measurements were derived from each implant to measure the amount of bone regenerated around each implant. These measurements represent the bone height from the endosteal surface to the most apical bone contact area of the implant and the mean width of that same bone calculated using three measurement references, including the endosteal surface (ES), ES +130 microns, and ES +260 microns.

PDGF-B = assay: Immunohistochemistry of PDGF-B expression in the titanium enclosure model; assay type: in vivo, rat; conditions: for PDGF-B expression in the area of the defect: 10 days
Protocol: (§1) In one study, bone regeneration and gene expression was assayed using a titanium enclosure model, as described in Example 1 (FIG. 1). Briefly, transcortical defects were created surgically in rat femurs. A collagen sponge, loaded with a varying concentration of Δ^12PGJ2 was applied to each defect. The collagen sponge was secured by placement of the titanium enclosure, which served as a rigid and fixed geometry cell exclusion barrier. Animals were sacrificed at 10 days and bone tissue sections were prepared for immunohistology to quantify growth factor expression. Tissue sections from treated animals were also analyzed morphometrically to assess de novo bone formation of the defect areas.
(§2) Δ^12PGJ2 (Cayman Chemical, Ann Arbor, Mich.) was diluted in 0.9% NaCl, pH 7.2, to the final concentration of 1×10^−3, 1×10^−5, 1×10^−7, and 1×10^−9 M. An absorbable collagen sponge (Colla-Tec Inc. Plainsboro, N.J.) 5×1.5 mm dimensions was used as a carrier. 10 μl of each Δ^12PGJ2 solution were loaded into the collagen carrier and then the carrier was placed inside the half cylindrical titanium enclosure. This provided a dosage of 3.0 μg, 30 ng, 0.3 ng, and 3 pg Δ^12PGJ2 in each of five standardized defects. The remaining volume inside the enclosure was filled with blood collected from the defect. The enclosure was inverted, placed over the defect, and stabilized by circumosseous wiring around the femoral bone using #010 orthodontic wire. […] The animals were monitored every day after surgery for indication of post-operative reactions. […]
The area and average intensity of positive immunostaining were measured using a microscope connected to a computerized video digital system (JAVA video analysis software, Jandel Scientific, Corte Madera, Calif.) at a magnification of 100×. Three to five sections were analyzed for each femur and the data from all sections were pooled to reflect a mean value for each bone defect. […]

BMP-6 = assay: Immunohistochemistry of BMP-6 expression in the titanium enclosure model; assay type: in vivo, rat; conditions: no concentration stated
Protocol: as §1
(§3) Δ^12PGJ2 (Cayman Chemical, Ann Arbor, Mich.) was diluted in 0.9% NaCl, pH 7.2, to the final concentration of 1×10^−3, 1×10^−5, 1×10^−7, and 1×10^−9 M. An absorbable collagen sponge (Colla-Tec Inc. Plainsboro, N.J.) 5×1.5 mm dimensions was used as a carrier. […] The animals were monitored every day after surgery for indication of post-operative reactions. […]
(§4) The area and average intensity of positive immunostaining were measured using a microscope connected to a computerized video digital system (JAVA video analysis software, Jandel Scientific, Corte Madera, Calif.) at a magnification of 100×. […]

[2] = system: transcortical defects in rat femurs; assay: Titanium enclosure model of bone regeneration (histomorphometry of cortical defect); assay type: in vivo; conditions: for percentage of new bone formation in cortical defect area (bone growth): rat femur, control value 40%
Protocol: as §1
Titanium enclosures were prepared by trimming and carving 0.1 mm thickness titanium plate to half cylindrical shape which had 8×1.5×2 mm in length, height, and width respectively. Both ends of the enclosures were sealed with surgical grade, self curing acrylic resin to form a closed half cylinder which is open only in the sagittal direction. The enclosures were then washed in an ultrasonic cleaning machine and autoclaved to sterilize and to create a titanium oxide surface prior to use.
Twenty-eight male Wistar rats, aged 8 weeks and weighing 350-400 g were randomly separated into 4 groups that received varying doses of Δ^12PGJ2. Two rats were housed in each cage with free access to normal laboratory diet and water ad libitum. After 7 days of acclimatization, the animals were initially anesthetized intramuscularly with Sodium pentobarbital (Nembutal sodium solution, Abbott Laboratories, Chicago, Ill.) at a dosage of 75 mg/kg of body weight. The area of intended surgery was shaved and disinfected using 90% ethyl alcohol. After pupillary reflex was inhibited, a 3-cm incision was made through skin and muscle parallel to the long axis over the dorsal aspect of both left and right femoral bone. The periosteum was incised and removed from the surface of the bone, creating an exposed area of sufficient size to place the open face of the cylindrical enclosure directly on the bone surface. Subsequently, a 5×1.5 mm transcortical defect was made through the cortical bone into the bone marrow at the midshaft region using round and cylindrical steel burs and a low speed micromotor machine. A sufficiently sterile 0.9% saline solution was used as a coolant to avoid heat-induced necrosis of surrounding bone. The femoral bone on one side of the animal was randomly chosen for treatment with Δ^12PGJ2, and the contralateral side was used as a control. FIG. 1 depicts a schematic diagram of the titanium enclosure model.
as §2

BMP-2 = assay: Immunohistochemistry of BMP-2 expression in the titanium enclosure model; assay type: in vivo, rat; conditions: no concentration stated
Protocol: as §1, §3, §4

PDGF-A = assay: Immunohistochemistry of PDGF-A expression in the titanium enclosure model; assay type: in vivo, rat; conditions: no concentration stated
Protocol: as §1, §3, §4

[3] = treated versus control injuries, 10^−3M or 10^−5M applied to site

SMILES: CCCCCC(O)CC=C1C(=O)C=CC1C/C=C\CCCC(=O)O (stereo not drawn) [Δ^12PGJ2, Δ^12-13,14-dihydro-9-deoxy-Δ^9-prostaglandin D2]
- bone growth (height and width) around implant ([1]; 3 weeks after administration): Significantly increased bone growth
- bone growth (height and width) around implant ([1]; 8 weeks after administration): Significantly increased bone growth
- bone height around implant [1, 3]: significantly increased
- bone width around implant [1, 3]: significantly increased
- PDGF-B expression in the area of the defect (PDGF-B; 10^−3M): significant increase
- PDGF-B expression in the area of the defect (PDGF-B; 10^−5M): significant increase
- PDGF-B expression / induction (general statement) (PDGF-B; no concentration stated): increase in PDGF-B expression; also recorded: potent and dose-dependent inducer
- BMP-6 expression / induction (BMP-6): increase in BMP-6 expression; also recorded: potent and dose-dependent inducer
- bone volume following administration (FIG. 2) [2]: increase in bone volume
- percentage of new bone formation in cortical defect area (bone growth) ([2]; 30 ng dose in collagen sponge, 10 days): 53 % volume
- increase in total bone area following treatment ([2]; 3.0 μg and 30 ng doses versus control, 10 days): ~33%
- percentage of new bone formation in cortical defect area (bone growth) ([2]; 3.0 μg dose in collagen sponge, 10 days): 54 % volume
- percentage of new bone formation, dose dependence ([2]; doses 3 pg to 3.0 μg, 10 days): increased in a dose-dependent manner
- BMP-2 induction (BMP-2): potent and dose-dependent inducer
- PDGF-A induction (PDGF-A): potent and dose-dependent inducer
